Test: Enhanced solubility of beta-cyclodextrin in water containing ClO2 (slurry test)
Conditions: 100 g slurry, 5% (w/w) in 8000 ppm ClO2 vs ultrapure water, 200 rpm, 3 days

For `OC[C@H]1O[C@@H]2O[C@H]3[C@H](O)[C@@H](O)[C@@H](O[C@H]4[C@H](O)[C@@H](O)[C@@H](O[C@H]5[C@H](O)[C@@H](O)[C@@H](O[C@H]6[C@H](O)[C@@H](O)[C@@H](O[C@H]7[C@H](O)[C@@H](O)[C@@H](O[C@H]8[C@H](O)[C@@H](O)[C@@H](O[C@H]1[C@H](O)[C@H]2O)O[C@@H]8CO)O[C@@H]7CO)O[C@@H]6CO)O[C@@H]5CO)O[C@@H]4CO)O[C@@H]3CO` [beta-cyclodextrin], the “weight of undissolved dried beta-cyclodextrin, less than control slurry” value was 0.32 g.

Reference: patent US20120070508A1, “Methods, Compositions, and Devices for Managing Chlorine Dioxide Release” (DHARMA IP, LLC, priority 2010, published 2012)
